According to US10138208B2, “Pyrazole derivatives as inhibitors of STAT3” (Mayo Foundation for Medical Education and Research, priority 2012, dated 2018):
“Also recorded” adds a separate entry of the source. Read-outs that look alike come from different tables or passages of the source.

Key:
[1] = system: dBT114 cells; test: Annexin V/propidium iodide apoptosis assay, dBT114; type: cell-based, human; settings: for cell death through apoptosis (Annexin V/PI flow cytometry): dBT114 (BT114) cells, dose dependent, 24 hours
Procedure: (§1) The compounds were tested for their effect on tumor cell viability by initiating apoptosis through Annexin V-FITC cell staining analysis. […] Cell death was most pronounced in DAOY cells, followed by BT114 and then HCT cells (FIG. 8). […] The difference in cell death between cell lines may reflect differences in STAT3 signaling between tumor cell types.
(§2) Apoptosis Assay: Analysis of cell death through an apoptosis pathway was determined using an Annexin V apoptosis detection kit (Calbiochem, Rockland, Mass.). dBT114, DAOY and HCT116 cells were plated in 6-well tissue culture plates at a density of 500 cells per well and allowed to reach 60% confluence prior to addition of test compounds for 24 hours. Floating and adherent cells were harvested and stained with FITC-labeled Annexin V and propidium iodide for 15 minutes at room temperature in the dark. The cells were then washed with cold binding buffer and immediately analyzed by flow cytometry for cells staining positive for both Annexin V and propidium iodide.

[2] = system: DAOY cells; test: Annexin V/propidium iodide apoptosis assay, DAOY; type: cell-based; settings: dose dependent, 24 hours
Procedure: as §1, §2

[3] = system: glioblastoma (dBT114) cells; test: IncuCyte cell proliferation assay (confluence), dBT114; type: cell-based, human; settings: for dose-dependent inhibition of tumor cell proliferation: dBT114 cells (FIG. 4B); for effect on tumor cell growth kinetics (confluence): 50 μM (FIG. 4A)
Procedure: (§3) Pyrazole-based inhibitors were tested for efficacy in stopping tumor cell growth by performing cell proliferation assays in glioblastoma (dBT114), medulloblastoma (DAOY) and human colorectal carcinoma (HCT116) cells lines. Tumor cells were plated in 96-well plates and varying concentrations of inhibitors or DMSO were added initially or after several log-growths of tumor cells. Cell proliferation was determined by measuring cell confluency using an automated system. […] Similar effects were found on tumor cell proliferation in DAOY and HCT116 tumor cell lines (FIG. 5, again only showing C6 data). The effects of C6 and C3 on tumor cell proliferation were compared to other previously characterized inhibitors, specifically, WP1066 (a Jak2 inhibitor) and LLL-12 (a direct STAT3 inhibitor).
(§4) IncuCyte Cell Proliferation Assay: Cell proliferation assays were performed on dBT114, DAOY and HCT116 cells using an IncuCyte 2011A microplate imager (Essen BioScience, Ann Arbor, Mich.). Cells were plated at a density of 3000 cells per well in a 96 well plate and allowed to reach exponential growth phase prior to the addition of test compounds. Cell confluence was measured optically every three hours for up to 90 hours.

[4] = biological target: T1, STAT3 (Homo sapiens, UniProt P40763); test: IL-6 induced STAT3 phosphorylation, Western blot / densitometry, dBT114 cells; type: cell-based; settings: for IC50: densitometry of western blots (FIG. 12), read-out: half-maximal inhibitory concentration (IC50) for blocking STAT3 activation; for inhibition of STAT3 phosphorylation: IL-6, 10 μM, Western blot (FIG. 1); for dose dependence of inhibition of IL-6 induced STAT3 phosphorylation: increasing concentrations (FIG. 2)
T1 construct: To characterize changes in protein levels in whole cell lysates; endogenous in cells; host or cells: dBT114 (human GBM stem cell line)
T1 sequence (P40763 whole entry): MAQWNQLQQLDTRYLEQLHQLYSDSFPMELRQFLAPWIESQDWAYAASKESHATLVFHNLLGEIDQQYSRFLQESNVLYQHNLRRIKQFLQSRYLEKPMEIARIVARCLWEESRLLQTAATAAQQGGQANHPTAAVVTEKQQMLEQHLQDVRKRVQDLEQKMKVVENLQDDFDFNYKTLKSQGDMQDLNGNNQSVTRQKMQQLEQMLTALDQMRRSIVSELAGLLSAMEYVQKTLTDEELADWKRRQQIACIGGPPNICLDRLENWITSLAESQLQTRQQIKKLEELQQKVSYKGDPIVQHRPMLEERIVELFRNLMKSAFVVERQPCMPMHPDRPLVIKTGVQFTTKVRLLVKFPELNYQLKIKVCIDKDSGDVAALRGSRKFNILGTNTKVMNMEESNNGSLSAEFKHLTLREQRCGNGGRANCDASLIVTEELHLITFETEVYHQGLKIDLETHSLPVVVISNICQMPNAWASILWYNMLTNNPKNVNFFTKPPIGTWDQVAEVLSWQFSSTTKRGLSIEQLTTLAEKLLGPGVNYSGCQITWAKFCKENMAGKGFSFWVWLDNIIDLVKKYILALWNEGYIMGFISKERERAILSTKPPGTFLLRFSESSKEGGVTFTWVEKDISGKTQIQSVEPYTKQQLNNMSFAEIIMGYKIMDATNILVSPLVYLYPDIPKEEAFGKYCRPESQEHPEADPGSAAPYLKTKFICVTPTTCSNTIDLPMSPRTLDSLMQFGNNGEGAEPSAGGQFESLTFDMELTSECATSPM
Procedure: (§5) Compounds described herein can be tested for blocking the activation of phospho-STAT3 in vitro. […] The compounds were tested for inhibiting IL-6 induced phosphorylation of STAT3 in a human Glioblastoma GBM stem cell line (dBT114) and in the murine GBM cell line, GL261. IL-6 potently activates STAT3 phosphorylation in dBT114 cells but not as much in GL261 cells (FIG. 1), showing that GL261 cells have constitutively activated STAT3. […] A dose dependent decrease of IL-6 induced STAT3 phosphorylation in dBT114 cells using increasing concentrations of our compounds was observed, while no effect was seen on the levels of activated MAP kinase (FIG. 2).
Western Blot Analysis: Prior to analysis, cells were washed twice in cold phosphate buffered saline (PBS) and flash frozen in 200 μL of lysis buffer (50 mm/L NaCl, 50 mmol/L NaF, 50 mmol/L sodium pyrophosphate, 5 mmol/L EDTA, 5 mmol/L EGTA, 2 mmol/L Na3VO4, 1% Triton X-100, 0.5 mmol/L PMSF, […], 10 mmol/L HEPES, pH 7.4) in a ethanol/dry ice bath followed by scraping and a 5 second sonication to achieve a homogeneous solution. Sample protein concentrations were determined using the Bradford protein assay kit (Bio-Rad, Hercules, Calif.). To characterize changes in protein levels in whole cell lysates, 10 μg of total protein was size fractioned by 12% SDS-PAGE, transferred to nitrocellulose and stained with Ponceau-S stain to ensure equal protein loading. For Western blot analysis, membranes were incubated for 1 hour in blocking solution containing 1% dry milk in PBS-T, followed by an overnight incubation with either anti-Stat3 (Santa Cruz Biotechnology, Santa Cruz, Calif.,) or anti-Phospho-Stat3 (Santa Cruz). Nitrocellulose membranes were then incubated for 1 hour with horseradish peroxidase conjugated anti-IgG antibodies and visualized using Super Signal West Pico enhanced chemiluminescence detection (Thermo Scientific, Waltham, Mass.).
Western Densitometry—Determination of Half-Maximal Inhibitory Concentration for Activating STAT3: Dose Response Curves Half-maximal inhibitory concentrations for activating STAT3 (IC50 values) were calculated in BT114 cells from western blot data. The original western blot films were analyzed by densitometric analysis using the software program NIH Image (available at rsb.info.nih.gov/nih-image/). Standard dose-response curves were then created using the software program Prism 5.

[5] = system: Normal Human Astrocytes (NHA); test: MTT cell proliferation assay, normal human astrocytes; settings: 24 hour exposure, increasing concentrations, n=4 (FIG. 13)
Procedure: (§9) MTT Cell Proliferation Assay: Normal Human Astrocytes (Lonza) and human BT114 cells were plated at a density of 5000 cells per well in a 96-well tissue culture plate and incubated at 37° C. in the presence of 5% CO2 for 24 hours. Cell proliferation was determined using the CellTiter 96 Cell Proliferation Assay (Promega). After 24 hours cells were refed with normal media and MTT dye solution was added according to manufacturer's protocol. After 4 hours the reaction was stopped and absorbance was measured at 570 nm using a 96 well plate reader. […] (n=4).

[6] = system: HCT116 cells; test: Annexin V/propidium iodide apoptosis assay, HCT116; type: cell-based, human; settings: HCT (HCT116) cells, dose dependent, 24 hours
Procedure: as §1, §2

[7] = system: DAOY cells; test: Uptake in living cells by confocal microscopy; type: cell-based; settings: live DAOY cells, 50 μM, 30 minutes, confocal microscopy (FIG. 9)
Procedure: Further, live DAOY cells were treated with 50 μM C9 for 30 minutes and then evaluated its uptake with confocal microscopy.

[8] = system: human colorectal carcinoma (HCT116) cells; test: IncuCyte cell proliferation assay (confluence), HCT116; type: cell-based; settings: human colorectal carcinoma cell line HCT116 (FIG. 5B)
Procedure: as §3, §4

[9] = system: medulloblastoma (DAOY) cells; test: IncuCyte cell proliferation assay (confluence), DAOY; type: cell-based; settings: DAOY cells (FIG. 5A)
Procedure: as §3, §4

[10] = system: Cyclin D1; test: Downstream target of STAT3 transcription: Cyclin D1 protein level in dBT114 cells; type: cell-based, human; settings: various concentrations, 24 hours (FIG. 3)
Procedure: (§6) STAT3 is a transcription factor that leads to the activation of several pro-proliferation proteins including Cyclin D1 and numerous anti-apoptotic proteins such as Bcl-2. To analyze the effects on the downstream targets of STAT3 transcription, Cyclin D1 and Bcl-2 protein levels were monitored after exposure to the compounds described. dBT114 cells were treated with various concentrations of C3, C10 or DMSO for 24 hours.
(§7) Western Blot Analysis: Prior to analysis, cells were washed twice in cold phosphate buffered saline (PBS) and flash frozen in 200 μL of lysis buffer (50 mm/L NaCl, 50 mmol/L NaF, 50 mmol/L sodium pyrophosphate, 5 mmol/L EDTA, 5 mmol/L EGTA, 2 mmol/L Na3VO4, 1% Triton X-100, 0.5 mmol/L PMSF, […], 10 mmol/L HEPES, pH 7.4) in a ethanol/dry ice bath followed by scraping and a 5 second sonication to achieve a homogeneous solution. Sample protein concentrations were determined using the Bradford protein assay kit (Bio-Rad, Hercules, Calif.). To characterize changes in protein levels in whole cell lysates, 10 μg of total protein was size fractioned by 12% SDS-PAGE, transferred to nitrocellulose and stained with Ponceau-S stain to ensure equal protein loading. […]

[11] = system: Bcl-2; test: Downstream target of STAT3 transcription: Bcl-2 protein level in dBT114 cells; type: cell-based, human; settings: various concentrations, 24 hours (FIG. 3, FIG. 10B)
Procedure: as §6, §7

[12] = system: Normal Human Astrocytes (NHA)
Procedure: as §9

[13] = system: MAP kinase; test: Activated MAP kinase levels, Western blot, dBT114 cells; type: cell-based, human; settings: increasing concentrations (FIG. 2)
Procedure: as §5
(§8) Western Blot Analysis: Prior to analysis, cells were washed twice in cold phosphate buffered saline (PBS) and flash frozen in 200 μL of lysis buffer (50 mm/L NaCl, 50 mmol/L NaF, 50 mmol/L sodium pyrophosphate, 5 mmol/L EDTA, 5 mmol/L EGTA, 2 mmol/L Na3VO4, 1% Triton X-100, 0.5 mmol/L PMSF, […], 10 mmol/L HEPES, pH 7.4) in a ethanol/dry ice bath followed by scraping and a 5 second sonication to achieve a homogeneous solution. Sample protein concentrations were determined using the Bradford protein assay kit (Bio-Rad, Hercules, Calif.). […]

[14] = biological target: T2, STAT3 (Mus musculus, UniProt P42227); test: STAT3 phosphorylation, Western blot, GL261 cells; type: cell-based, murine; settings: GL261 cells (constitutively activated STAT3), 10 μM, Western blot (FIG. 1)
T2 construct: endogenous in cells; host or cells: GL261 (murine GBM cell line)
T2 sequence (P42227 whole entry): as the sequence (P40763 whole entry) above, with E760D counted along it
Procedure: as §5, §8

[15] = system: PARP; test: PARP cleavage in dBT114 cells; type: cell-based, human; settings: various concentrations, 24 hours (FIG. 3, FIG. 10B)

SMILES | cell death through apoptosis (Annexin V/PI flow cytometry) [1] | cell death through apoptosis (Annexin V/PI flow cytometry) [2] | dose-dependent inhibition of tumor cell proliferation [3] | IC50 [4] | metabolic activity of normal human astrocytes [5] | cell death through apoptosis (Annexin V/PI flow cytometry) [6] | uptake and fluorescence in living cells [7] | relative potency in causing cell death ([1]; all cell lines tested (BT114, DAOY, HCT)) | effect on tumor cell growth kinetics (confluence) ([3]; dBT114 cells) | cellular proliferation, combination with temozolomide (TMZ) ([3]; dBT114 cells, C6 fixed 25 μM with increasing concentrations of TMZ (FIG. 7)) | dose-dependent inhibition of tumor cell proliferation [8] | dose-dependent inhibition of tumor cell proliferation [9] | Cyclin D1 protein level [10] | Bcl-2 protein level [11] | metabolic activity of normal human astrocytes [12] | effect on levels of activated MAP kinase [13] | inhibition of STAT3 phosphorylation [14] | inhibition of STAT3 phosphorylation [4] | dose dependence of inhibition of IL-6 induced STAT3 phosphorylation [4] | cleavage of PARP (induction of apoptosis) [15]
CC(=O)Nc1ccc(Cc2cc(-c3ccc(Br)cc3)n(-c3ccc(S(N)(=O)=O)cc3)n2)cc1 [C4, 3-(4-Acetamidebenzyl)-5-(4-bromophenyl)-1-(4-aminosulfonylphenyl)-1H-pyrazole] | cell death through apoptosis; also recorded: dose-dependent apoptosis | cell death through apoptosis | dose-dependent inhibition | > 50000 nM | no clear pattern of increased or decreased metabolic activity | cell death through apoptosis |  |  |  |  |  |  |  |  |  |  |  |  |  | 
CC(C)CCc1cc(-c2ccccc2)nn1-c1ccc(S(N)(=O)=O)cc1 [C9, 3-(Phenyl)-5-(isopentyl)-1-(4-aminosulfonylphenyl)-1H-pyrazole] |  |  |  |  |  |  | strong uptake and fluorescence |  |  |  |  |  |  |  |  |  |  |  |  | 
CC(C)CCc1cc(-c2ccc(Br)cc2)n(-c2ccc(S(N)(=O)=O)cc2)n1 [C6, 5-(4-Bromophenyl)-3-(isopentyl)-1-(4-aminosulfonylphenyl)-1H-pyrazole] | cell death through apoptosis; also recorded: dose-dependent apoptosis | cell death through apoptosis | dose-dependent inhibition; also recorded: dose dependent inhibition | 13400 nM | no clear pattern of increased or decreased metabolic activity | cell death through apoptosis |  | more potent than C4 | profound effect | dose-dependent decrease | dose dependent inhibition | dose dependent inhibition |  |  |  |  |  |  |  | 
NS(=O)(=O)c1ccc(-n2nc(Cc3ccc(NC(=O)COCC(=O)NCCCCCCCNC(=O)COCC(=O)Nc4ccc(Cc5cc(-c6ccc(Br)cc6)n(-c6ccc(S(N)(=O)=O)cc6)n5)cc4)cc3)cc2-c2ccc(Br)cc2)cc1 [C10, 3-[{2-[(7-{2-[((4-((5-(4-Bromophenyl)-1-(4-sulfamoylphenyl)-1H-pyrazol-3-yl)methyl)phenyl)aminocarbonyl)-methoxy]-acetylamino}-heptylaminocarbonyl)-methoxy]-acetyl}-(4-aminobenzyl)]-5-(4-bromophenyl)-1-(4-aminosulfonylphenyl)-1H-pyrazole] | dose-dependent apoptosis |  |  | 207 nM |  |  |  |  |  |  |  |  | decreased Cyclin D1 levels in a dose dependent fashion | dose-dependent reduction | no clear pattern of increased or decreased metabolic activity | no effect | potently inhibited; also recorded: blocked | potently inhibited; also recorded: blocked | dose-dependent inhibition | increase
CNC(=O)COCC(=O)Nc1ccc(Cc2cc(-c3ccc(Br)cc3)n(-c3ccc(S(N)(=O)=O)cc3)n2)cc1 [C3, 3-[{2-[(Methylaminocarbonyl)-methoxy]-acetyl}-(4-aminobenzyl)]-5-(4-bromophenyl)-1-(4-aminosulfonylphenyl)-1H-pyrazole] | dose-dependent apoptosis |  | dose-dependent inhibition | 670 nM |  |  |  |  | profound effect |  |  |  |  | decreased Bcl-2 in a dose dependent fashion; also recorded: dose-dependent reduction | no clear pattern of increased or decreased metabolic activity | no effect | potently inhibited; also recorded: blocked | potently inhibited; also recorded: blocked | dose-dependent inhibition | cleavage of PARP; also recorded: increase
